# From patent US20090181963A1, “3H-[1,2,3]TRIAZOLO[4,5-D]PYRIMIDINE COMPOUNDS, THEIR USE AS mTOR KINASE AND PI3 KINASE INHIBITORS, AND THEIR [sequence]” (Wyeth, priority 2008, published 2009)
# Experiments:
# [1] = biological target: PI3 Kinase α (Homo sapiens, UniProt P42336); assay: Fluorescence polarization assay for PI3K (PI3 Kinase α); format: biochemical; conditions: diC8-PI(4,5)P2 substrate, 25 μM ATP, one hour at 25° C.
# [2] = biological target: PI3 Kinase γ (Homo sapiens, UniProt P48736); assay: Fluorescence polarization assay for PI3K (PI3 Kinase γ); format: biochemical; conditions: diC8-PI(4,5)P2 substrate, 25 μM ATP, one hour at 25° C.
# Sequence of PI3 Kinase γ (P48736 whole entry): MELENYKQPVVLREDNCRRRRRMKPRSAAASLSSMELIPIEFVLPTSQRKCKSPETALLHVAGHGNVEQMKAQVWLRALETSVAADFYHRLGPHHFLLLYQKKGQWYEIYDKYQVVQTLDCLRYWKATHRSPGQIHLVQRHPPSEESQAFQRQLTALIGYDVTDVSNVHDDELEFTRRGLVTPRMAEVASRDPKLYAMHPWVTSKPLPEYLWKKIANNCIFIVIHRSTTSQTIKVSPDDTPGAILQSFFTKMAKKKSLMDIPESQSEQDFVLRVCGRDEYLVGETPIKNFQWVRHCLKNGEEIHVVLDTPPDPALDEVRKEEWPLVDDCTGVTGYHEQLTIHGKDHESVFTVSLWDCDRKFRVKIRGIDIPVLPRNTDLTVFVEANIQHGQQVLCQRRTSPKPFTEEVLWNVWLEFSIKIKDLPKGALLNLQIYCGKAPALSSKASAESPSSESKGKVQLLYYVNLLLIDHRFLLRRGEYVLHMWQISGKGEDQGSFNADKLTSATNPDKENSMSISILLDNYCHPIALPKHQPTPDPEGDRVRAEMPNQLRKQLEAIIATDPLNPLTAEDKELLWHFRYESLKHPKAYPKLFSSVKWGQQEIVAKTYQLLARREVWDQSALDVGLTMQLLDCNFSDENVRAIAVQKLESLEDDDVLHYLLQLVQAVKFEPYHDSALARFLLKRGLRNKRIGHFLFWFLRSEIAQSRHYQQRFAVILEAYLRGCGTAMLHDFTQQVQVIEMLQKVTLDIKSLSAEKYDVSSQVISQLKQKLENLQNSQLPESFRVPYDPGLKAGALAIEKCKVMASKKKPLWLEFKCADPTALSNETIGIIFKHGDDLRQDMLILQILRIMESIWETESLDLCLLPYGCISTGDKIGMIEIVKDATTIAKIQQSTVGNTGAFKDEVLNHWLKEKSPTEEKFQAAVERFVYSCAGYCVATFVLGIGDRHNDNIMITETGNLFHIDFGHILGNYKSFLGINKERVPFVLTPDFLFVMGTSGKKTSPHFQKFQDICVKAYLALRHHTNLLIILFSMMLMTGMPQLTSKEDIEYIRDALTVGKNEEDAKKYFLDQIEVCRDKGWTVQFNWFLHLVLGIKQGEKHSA
# Description: Nunc 384 well black polypropylene fluorescent plates were used for PI3K assays. Reactions were quenched by the addition of EDTA to a final concentration of 10 μM. Final reaction volumes were 10 ml. […] Reactions were allowed to proceed for one hour at 25° C. After I hour, GST-tagged GRP1 (general receptor for phosphoinositides) PH domain fusion protein was added to a final concentration of 100 nM, and BODIPY-TMRI(1,3,4,5)P4 (Echelon) was also added to a final concentration of 5 nM. Final sample volumes were 25 μl with a final DMSO concentration of 0.8%. Assay Plates were read on PerkinElmer Envision plate readers with appropriate filters for Tamra [BODIPY-TMRI(1,3,4,5)P4]. Data obtained were used to calculate enzymatic activity and enzyme inhibition by inhibitor compounds.
# Sequence of PI3 Kinase α (P42336 whole entry): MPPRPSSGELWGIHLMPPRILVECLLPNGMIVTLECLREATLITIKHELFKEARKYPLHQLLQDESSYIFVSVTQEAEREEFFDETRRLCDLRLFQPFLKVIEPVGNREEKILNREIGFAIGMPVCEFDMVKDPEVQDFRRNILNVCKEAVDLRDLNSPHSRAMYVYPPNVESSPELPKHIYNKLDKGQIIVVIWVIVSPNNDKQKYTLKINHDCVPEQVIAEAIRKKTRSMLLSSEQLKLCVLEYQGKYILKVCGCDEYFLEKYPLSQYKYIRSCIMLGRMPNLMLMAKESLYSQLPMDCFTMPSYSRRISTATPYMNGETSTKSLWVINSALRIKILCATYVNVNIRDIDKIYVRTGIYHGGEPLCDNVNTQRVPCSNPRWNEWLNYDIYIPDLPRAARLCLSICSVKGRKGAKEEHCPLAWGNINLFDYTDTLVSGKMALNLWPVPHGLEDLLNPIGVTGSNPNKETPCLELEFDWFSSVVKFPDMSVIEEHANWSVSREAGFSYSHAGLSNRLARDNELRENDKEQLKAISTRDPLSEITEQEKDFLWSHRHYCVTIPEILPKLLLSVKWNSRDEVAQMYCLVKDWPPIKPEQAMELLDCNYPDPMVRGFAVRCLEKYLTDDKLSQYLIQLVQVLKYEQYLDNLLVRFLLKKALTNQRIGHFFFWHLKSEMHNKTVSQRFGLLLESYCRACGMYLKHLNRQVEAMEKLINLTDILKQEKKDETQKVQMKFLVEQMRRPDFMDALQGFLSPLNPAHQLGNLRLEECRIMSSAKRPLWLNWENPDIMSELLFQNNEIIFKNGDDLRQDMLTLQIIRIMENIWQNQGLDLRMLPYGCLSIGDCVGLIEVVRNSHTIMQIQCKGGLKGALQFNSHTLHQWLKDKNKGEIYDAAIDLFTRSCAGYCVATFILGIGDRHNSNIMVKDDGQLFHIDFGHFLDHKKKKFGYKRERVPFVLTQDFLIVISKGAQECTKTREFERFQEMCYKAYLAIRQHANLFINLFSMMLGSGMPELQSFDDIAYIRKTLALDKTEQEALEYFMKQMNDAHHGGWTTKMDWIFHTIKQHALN
# Sequence of PI3 Kinase α (P27986 whole entry partner): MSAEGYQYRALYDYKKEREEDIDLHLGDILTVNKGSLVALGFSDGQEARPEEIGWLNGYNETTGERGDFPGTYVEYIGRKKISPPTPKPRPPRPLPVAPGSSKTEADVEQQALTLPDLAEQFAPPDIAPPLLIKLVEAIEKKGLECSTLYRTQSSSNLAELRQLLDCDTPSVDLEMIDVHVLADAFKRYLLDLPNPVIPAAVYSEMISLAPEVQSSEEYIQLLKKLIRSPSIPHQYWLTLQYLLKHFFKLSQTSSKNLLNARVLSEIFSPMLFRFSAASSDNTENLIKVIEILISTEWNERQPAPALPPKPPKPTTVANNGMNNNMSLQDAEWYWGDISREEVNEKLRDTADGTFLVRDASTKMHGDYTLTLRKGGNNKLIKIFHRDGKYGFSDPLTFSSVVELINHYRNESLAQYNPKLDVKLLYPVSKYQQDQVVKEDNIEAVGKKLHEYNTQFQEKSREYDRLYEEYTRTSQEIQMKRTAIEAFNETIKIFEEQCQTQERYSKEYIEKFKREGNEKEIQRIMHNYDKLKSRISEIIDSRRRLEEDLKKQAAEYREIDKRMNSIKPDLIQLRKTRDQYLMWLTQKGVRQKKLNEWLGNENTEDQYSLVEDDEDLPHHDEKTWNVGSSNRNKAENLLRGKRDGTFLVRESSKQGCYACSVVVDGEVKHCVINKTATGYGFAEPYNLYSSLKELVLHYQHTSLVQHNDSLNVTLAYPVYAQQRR
SMILES,IC50 [1],IC50 [2]
"O=C(Nc1ccncc1)Nc1ccc(-c2nc(N3CCOCC3)c3nnn(C4CC4)c3n2)cc1 [Example 78, 1-(4-(3-cyclopropyl-7-morpholino-3H-[1,2,3]triazolo[4,5-d]pyrimidin-5-yl)phenyl)-3-(pyridin-4-yl)urea]",6 nM,13.5 nM
"CN(C)CCCCn1nnc2c(N3CCOCC3)nc(-c3cccc(O)c3)nc21 [Example 202, 3-{3-[4-(dimethylamino)butyl]-7-morpholin-4-yl-3H-[1,2,3]triazolo[4,5-d]pyrimidin-5-yl}phenol]",224 nM,780 nM
"COC(=O)c1cccc(-n2nnc3c(N4CCOCC4)nc(-c4cccc(C=O)c4)nc32)c1 [Example 116, methyl 3-[5-(3-formylphenyl)-7-morpholin-4-yl-3H-[1,2,3]triazolo[4,5-d]pyrimidin-3-yl]benzoate]",> 10000 nM,> 10000 nM
"OCc1cccc(-c2nc(N3CCOCC3)c3nnn(-c4cccc(CO)c4)c3n2)c1 [Example 117, [(7-morpholin-4-yl-3H-[1,2,3]triazolo[4,5-d]pyrimidine-3,5-diyl)di-3,1-phenylene]dimethanol]",38.3 nM,144 nM
"Cn1cncc1CN1CCC(n2nnc3c(N4CCOCC4)nc(-c4cncc(O)c4)nc32)CC1 [Example 24, 5-(3-{1-[(1-methyl-1H-imidazol-5-yl)methyl]piperidin-4-yl}-7-morpholin-4-yl-3H-[1,2,3]triazolo[4,5-d]pyrimidin-5-yl)pyridin-3-ol]",86 nM,219 nM
"Oc1cccc(-c2nc(N3CCOCC3)c3nnn(CCc4ccccn4)c3n2)c1 [Example 196, 3-[7-Morpholin-4-yl-3-(2-pyridin-2-yl-ethyl)-3H-[1,2,3]triazolo[4,5-d]pyrimidin-5-yl]-phenol]",75.5 nM,1060 nM
"CN1CCC(n2nnc3c(N4CCOCC4)nc(-c4cncc(O)c4)nc32)CC1 [Example 22, 5-[3-(1-methylpiperidin-4-yl)-7-morpholin-4-yl-3H-[1,2,3]triazolo[4,5-d]pyrimidin-5-yl]pyridin-3-ol]",304 nM,318 nM
"Oc1cccc(-c2nc(N3CCOCC3)c3nnn(CCCCN4CCCC4)c3n2)c1 [Example 205, 3-[7-Morpholin-4-yl-3-(4-pyrrolidin-1-ylbutyl)-3H-[1,2,3]triazolo[4,5-d]pyrimidin-5-yl]phenol]",332 nM,1210 nM
"CCn1nnc2c(N3CCOCC3)nc(-c3ccc(NC(=O)Nc4ccc(C(=O)N5CCC(N6CCOCC6)CC5)cc4)cc3)nc21 [Example 48, 1-[4-(3-ethyl-7-morpholin-4-yl-3H-[1,2,3]triazolo[4,5-d]pyrimidin-5-yl)phenyl]-3-{4-[(4-morpholin-4-ylpiperidin-1-yl)carbonyl]phenyl}urea]",5.5 nM,31 nM
"CC(C)n1nnc2c(N3CCOCC3)nc(-c3ccc(NC(=O)Nc4ccc(C(N)=O)cc4)cc3)nc21 [Example 93, 4-{3-[4-(3-isopropyl-7-morpholin-4-yl-3H-[1,2,3]triazolo[4,5-d]pyrimidin-5-yl)-phenyl]-ureido}-benzamide]",2.5 nM,18 nM
"Oc1cncc(-c2nc(N3CCOCC3)c3nnn(C4CCN(Cc5ccc(-c6ccncc6)cc5)CC4)c3n2)c1 [Example 31, 5-{7-morpholin-4-yl-3-[1-(4-pyridin-4-ylbenzyl)piperidin-4-yl]-3H-[1,2,3]triazolo[4,5-d]pyrimidin-5-yl}pyridin-3-ol]",298 nM,2280 nM
"CCn1nnc2c(N3CCOCC3)nc(-c3ccc(NC(=O)NCCN(C)C)cc3)nc21 [Example 34, 1-[2-(dimethylamino)ethyl]-3-[4-(3-ethyl-7-morpholin-4-yl-3H-[1,2,3]triazolo[4,5-d]pyrimidin-5-yl)phenyl]urea]",132 nM,309 nM
"O=C(Cc1ccccc1)N1CCN(CCn2nnc3c(N4CCOCC4)nc(-c4cccc(O)c4)nc32)CC1 [Example 104, 3-(7-morpholin-4-yl-3-{2-[4-(phenylacetyl)piperazin-1-yl]ethyl}-3H-[1,2,3]triazolo[4,5-d]pyrimidin-5-yl)phenol]",1170 nM,3030 nM
"CCCCN1CCC(n2nnc3c(N4CCOCC4)nc(-c4cncc(O)c4)nc32)CC1 [Example 27, 5-[3-(1-butylpiperidin-4-yl)-7-morpholin-4-yl-3H-[1,2,3]triazolo[4,5-d]pyrimidin-5-yl]pyridin-3-ol]",385 nM,2530 nM
"CN(C)CCNC(=O)Nc1ccc(-c2nc(N3CCOCC3)c3nnn(C4CCN(Cc5ccc(F)cc5)CC4)c3n2)cc1 [Example 153, 1-(2-(dimethylamino)ethyl)-3-(4-(3-(1-(4-fluorobenzyl)piperidin-4-yl)-7-morpholino-3H-[1,2,3]triazolo[4,5-d]pyrimidin-5-yl)phenyl)urea]",146 nM,176 nM
"COc1ccc(NC(=O)Nc2ccc(-c3nc(N4CCOCC4)c4nnn(CCO)c4n3)cc2)cc1 [Example 185, 1-{4-[3-(2-hydroxyethyl)-7-morpholin-4-yl-3H-[1,2,3]triazolo[4,5-d]pyrimidin-5-yl]phenyl}-3-(4-methoxyphenyl)urea]",14 nM,44.7 nM

SMILES,IC50 [1],IC50 [2]
"Oc1cncc(-c2nc(N3CCOCC3)c3nnn(C4CCN(Cc5ccc(F)c(F)c5)CC4)c3n2)c1 [Example 18, 5-{3-[1-(3,4-difluorobenzyl)piperidin-4-yl]-7-morpholin-4-yl-3H-[1,2,3]triazolo[4,5-d]pyrimidin-5-yl}pyridin-3-ol]",75 nM,261 nM
"CCN1CCCC1CNC(=O)Nc1ccc(-c2nc(N3CCOCC3)c3nnn(C(C)C)c3n2)cc1 (centres unmarked) [Example 92, 1-(1-ethyl-pyrrolidin-2-ylmethyl)-3-[4-(3-isopropyl-7-morpholin-4-yl-3H-[1,2,3]triazolo[4,5-d]pyrimidin-5-yl)-phenyl]-urea]",149 nM,645 nM
"CCn1nnc2c(N3CCOCC3)nc(-c3ccc(N)c(OC)c3)nc21 [Example 175, 4-(3-ethyl-7-morpholin-4-yl-3H-[1,2,3]triazolo[4,5-d]pyrimidin-5-yl)-2-methoxyaniline]",1410 nM,9110 nM
"CC(C)n1nnc2c(N3CCOCC3)nc(-c3ccc(NC(=O)Nc4ccc(N5CCOCC5)cc4)cc3)nc21 [Example 85, 1-[4-(3-Isopropyl-7-morpholin-4-yl-3H-[1,2,3]triazolo[4,5-d]pyrimidin-5-yl)-phenyl]-3-(4-morpholin-4-yl-phenyl)-urea]",25 nM,78 nM
"CNC(=O)Nc1ccc(-c2nc(N3CCOCC3)c3nnn(C(C)C)c3n2)cc1 [Example 91, 1-[4-(3-isopropyl-7-morpholin-4-yl-3H-[1,2,3]triazolo[4,5-d]pyrimidin-5-yl)-phenyl]-3-methyl-urea]",41.5 nM,409 nM
"O=C(c1ccc(F)c(F)c1)N1CCN(CCn2nnc3c(N4CCOCC4)nc(-c4cccc(O)c4)nc32)CC1 [Example 102, 3-(3-{2-[4-(3,4-difluorobenzoyl)piperazin-1-yl]ethyl}-7-morpholin-4-yl-3H-[1,2,3]triazolo[4,5-d]pyrimidin-5-yl)phenol]",1260 nM,1920 nM
"CCn1nnc2c(N3CCOCC3)nc(-c3ccc(NC(=O)Nc4cccs4)cc3)nc21 [Example 40, 1-[4-(3-ethyl-7-morpholin-4-yl-3H-[1,2,3]triazolo[4,5-d]pyrimidin-5-yl)phenyl]-3-(2-thienyl)urea]",2.5 nM,11.5 nM
"Oc1cccc(-c2nc(N3CCOCC3)c3nnn(CCN4CCN(C5CCCCC5)CC4)c3n2)c1 [Example 106, 3-{3-[2-(4-cyclohexylpiperazin-1-yl)ethyl]-7-morpholin-4-yl-3H-[1,2,3]triazolo[4,5-d]pyrimidin-5-yl}phenol]",556 nM,2140 nM
"CC(C)(C)OC(=O)N1CCC(n2nnc3c(N4CCOCC4)nc(-c4cccc(O)c4)nc32)CC1 [Example 143, tert-butyl 4-[5-(3-hydroxyphenyl)-7-morpholin-4-yl-3H-[1,2,3]triazolo[4,5-d]pyrimidin-3-yl]piperidine-1-carboxylate]",189 nM,3790 nM
"O=C(Nc1ccc(-c2nc(N3CCOCC3)c3nnn(CC(F)(F)F)c3n2)cc1)Nc1cccnc1 [Example 135, 1-{4-[7-morpholin-4-yl-3-(2,2,2-trifluoroethyl)-3H-[1,2,3]triazolo[4,5-d]pyrimidin-5-yl]phenyl}-3-pyridin-3-ylurea]",9.5 nM,30 nM
"CC(=O)N1CCN(CCn2nnc3c(N4CCOCC4)nc(-c4cccc(O)c4)nc32)CC1 [Example 105, 3-{3-[2-(4-acetylpiperazin-1-yl)ethyl]-7-morpholin-4-yl-3H-[1,2,3]triazolo[4,5-d]pyrimidin-5-yl}phenol]",1380 nM,2960 nM
"Oc1cccc(-c2nc(N3CCOCC3)c3nnn(C4CN(Cc5ccc(F)nc5)C4)c3n2)c1 [Example 128, 3-(3-{1-[(6-fluoropyridin-3-yl)methyl]azetidin-3-yl}-7-morpholin-4-yl-3H-[1,2,3]triazolo[4,5-d]pyrimidin-5-yl)phenol]",164 nM,1100 nM
"O=C(NCCCN1CCCC1)c1ccc(Cn2nnc3c(N4CCOCC4)nc(-c4cccc(O)c4)nc32)cc1 [Example 211, 4-{[5-(3-hydroxyphenyl)-7-morpholin-4-yl-3H-[1,2,3]triazolo[4,5-d]pyrimidin-3-yl]methyl}-N-(3-pyrrolidin-1-ylpropyl)benzamide]",289 nM,2730 nM
"O=C(Nc1ccccc1)Nc1ccc(-c2nc(N3CCOCC3)c3nnn(CC4CN(Cc5ccccc5)C4)c3n2)cc1 [Example 191, 1-(4-{3-[(1-benzylazetidin-3-yl)methyl]-7-morpholin-4-yl-3H-[1,2,3]triazolo[4,5-d]pyrimidin-5-yl}phenyl)-3-phenylurea]",91 nM,329 nM
"CC(C)(C)OC(=O)N1CCC(NC(=O)c2ccc(Cn3nnc4c(N5CCOCC5)nc(-c5cccc(O)c5)nc43)cc2)CC1 [Example 208, tert-butyl 4-[(4-{[5-(3-hydroxyphenyl)-7-morpholin-4-yl-3H-[1,2,3]triazolo[4,5-d]pyrimidin-3-yl]methyl}benzoyl)amino]piperidine-1-carboxylate]",122 nM,1360 nM
